Tests used:
4T1 lung metastasis = assay: Orthotopic 4T1 model, lung metastasis; format: in vivo, mouse; details: orthotopic 4T1, 50 mg/kg, lung metastatic nodules counted
Excerpt: Data S2. Effect of SU056 treatment on body weight, metastatic potential and pharmacokinetic profiling of SU056, related to Figure 2 and 3
Human, mouse and PDX models of TNBC were used for tumor xenograft studies. SU056 treatment was started when tumors reached around ~25-50 mm3 and continued until the experiment reached its 3-week endpoint. Body weight was monitored throughout the study to understand any change in dietary pattern. Body weights of A) MDA-MB-231, B) MDA-MB-468, C) 4T1, D) EMT6, E) CA1616-PDX-TNBC, F) CA1262-PDX-TNBC, G) MA2821-PDX-TNBC and H) SUTI151-PDX-TNBC over time. I) Tumor volume, J) Tumor weight and K) The bar graph represents lung metastatic nodules in 4T1 orthotopic models. L) Representative images of lungs at the end of the treatment cycle. M) Mice were treated with 20 mg/kg SU056 orally. Cmax (maximum serum concentration), Tmax (time to reach Cmax), and T1/2 (elimination half-life of compound). N) Human liver microsomes were used for the purpose of metabolic profiling.
Data are shown as mean ± SD. Error bars represent ± SD.
*p < 0.05, **p < 0.01, ***p < 0.001 and ****p < 0.0001. Significant difference compared with respective control by Student’s t test or one-way ANOVA followed by Dunnett’s test.

YB-1 = YB-1 (Homo sapiens, UniProt P67809); assay: Cellular thermal shift assay (CETSA); format: binding; set-up: endogenous in cells; host or cells: MDA-MB-231; details: MDA-MB-231 cells, 1.5 h
Protocol: MDA-MB-231 cells treated with vehicle control (DMSO) or SU056 were analyzed by CETSA.[53] Cells were grown to 70–80% confluency and then treated with either DMSO (vehicle control) or SU056 (1 μM) for 1.5 h. Cells were then washed twice with PBS and divided into 10 PCR tubes (1 x 10^6 cells/tube in 100 μL PBS). The tubes incubated at different temperatures (37, 41, 44, 47, 50, 53, 56, 59, 63, 67°C) for 3 min in a thermal cycler, followed by 2 min at room temperature. The tubes were snap-frozen in liquid nitrogen, the cells were lysed using a freeze/thaw cycle, and the soluble and insoluble fractions were separated by centrifugation at 14,000 RPM for 30 min at 4°C. […] All samples were analyzed by LC-MS/MS in triplicate.
A Dionex Ultimate Rapid Separation Liquid Chromatography system (Thermo Fisher Scientific) was used to load 3 μL of the combined TMT-labeled peptides onto a PepMap C18 trap column (Thermo Fisher Scientific) with a flow rate set at 5 μL/min for 10 min. […] The flow rate throughout the gradient was set to 0.3 μL/min and each sample was analyzed in triplicates. Eluted peptides were analyzed using an Orbitrap Eclipse Tribrid mass spectrometer (Thermo Fisher Scientific). […] The most abundant precursor ions were subject to collision induced dissociation (CID) with a collisional energy set to […] and detected in the ion trap using Turbo scan rate. […]

O=C1OCC2=C1C(c1cccc(F)c1)c1cc3c(cc1N2CCO)OCO3 (stereo not drawn) [SU056, 9-(3-fluorophenyl)-5-(2-hydroxyethyl)-6,9-dihydro-[1,3]dioxolo[4,5-g]furo[3,4-b]quinolin-8(5H)-one]
decrease in lung metastasis compared to control (4T1 lung metastasis): 65.5% | stability of translation-associated proteins (eIFs, RPL, RPS) (YB-1; 1 μM): increased the overall stability | ΔTm at 1 µM (YB-1): 13.8 °C

From article PMC11148772, “Inhibition of protein translational machinery in triple-negative breast cancer as a promising therapeutic strategy” (Cell Reports Medicine, 2024)
